System: ARPE-19 cells
Assay: Cell protection against blue light-induced photooxidation of A2E, extract treated after A2E
Assay type: cell-based
Details: Homo sapiens, ARPE-19, 20 min; 30 μM after A2E 20 μM (positive control), blue light 430 nm 6000 lux 20 min; read-out: cell viability compared to the normal group
Experimental: To investigate the photooxidation by blue light induction (post-treatment), ARPE-19 cells were seeded to a 96-well plate at 1×10^4 cell/well and then incubated→(24 hr later) A2E (20 μM) pre-treated once→(after 24 hr) post-treated with a ginseng berry extract (25, 50, 100 μg/ml) once→(after 24 hr) irradiated with blue light (6000 lux, 20 min)→and then, (after 24 hr) the cell viability was measured by using the cell count kit. Since the A2E accumulated in human retinal pigment epithelial cells (ARPE-19 cells) is known to induce cytotoxicity when irradiated with blue light (BL), cell protective capability and cell viability against blue light-induced photooxidation were analyzed. Human retinal pigment epithelial cells (ARPE-19 cells) were aliquoted in a 96-well tissue culture plate at a density of 1×10^4 cells/well and cultured for 24 hours. After treating with A2E at a concentration of 20 μM and culturing for 24 hours, the experimental group was treated with 25, 50, and 100 μg/mL of the ginseng berry extract, a positive control group was treated with 30 μM of lutein instead of the ginseng berry extract, and A2E was accumulated in a negative control group without preliminary drug treatment. After culturing for 24 hours, blue light (BL, 430 nm, 6000 lux) was irradiated for 20 minutes, and after 24 hours, the cell viability was measured by using the cell count kit.

Compound: CC1=C[C@H](O)CC(C)(C)[C@H]1/C=C/C(C)=C/C=C/C(C)=C/C=C/C=C(C)/C=C/C=C(C)/C=C/C1=C(C)C[C@@H](O)CC1(C)C [lutein]
- viability at 30 µM: 88.2%

Source: patent publication US20240058408A1, “COMPOSITION FOR PREVENTING OR TREATING MACULAR DEGENERATION CONTAINING GINSENG BERRY EXTRACT” (HOLISTIC BIO CO., LTD., priority 2020, published 2024)
